From patent publication US9738642B2, “Triazolopyridine ether derivatives and their use in neurological and pyschiatric disorders” (BRISTOL-MYERS SQUIBB COMPANY, priority 2013, dated 2017) come the findings set out here.

Where a name gives a salt, the structure may show the parent alone.

The target of the assay is T1, human mGluR2 (Homo sapiens, UniProt Q14416).
T1 construct: expressed in transfected cells; host or cells: HEK293 clonal line
T1 sequence (Q14416 19-872): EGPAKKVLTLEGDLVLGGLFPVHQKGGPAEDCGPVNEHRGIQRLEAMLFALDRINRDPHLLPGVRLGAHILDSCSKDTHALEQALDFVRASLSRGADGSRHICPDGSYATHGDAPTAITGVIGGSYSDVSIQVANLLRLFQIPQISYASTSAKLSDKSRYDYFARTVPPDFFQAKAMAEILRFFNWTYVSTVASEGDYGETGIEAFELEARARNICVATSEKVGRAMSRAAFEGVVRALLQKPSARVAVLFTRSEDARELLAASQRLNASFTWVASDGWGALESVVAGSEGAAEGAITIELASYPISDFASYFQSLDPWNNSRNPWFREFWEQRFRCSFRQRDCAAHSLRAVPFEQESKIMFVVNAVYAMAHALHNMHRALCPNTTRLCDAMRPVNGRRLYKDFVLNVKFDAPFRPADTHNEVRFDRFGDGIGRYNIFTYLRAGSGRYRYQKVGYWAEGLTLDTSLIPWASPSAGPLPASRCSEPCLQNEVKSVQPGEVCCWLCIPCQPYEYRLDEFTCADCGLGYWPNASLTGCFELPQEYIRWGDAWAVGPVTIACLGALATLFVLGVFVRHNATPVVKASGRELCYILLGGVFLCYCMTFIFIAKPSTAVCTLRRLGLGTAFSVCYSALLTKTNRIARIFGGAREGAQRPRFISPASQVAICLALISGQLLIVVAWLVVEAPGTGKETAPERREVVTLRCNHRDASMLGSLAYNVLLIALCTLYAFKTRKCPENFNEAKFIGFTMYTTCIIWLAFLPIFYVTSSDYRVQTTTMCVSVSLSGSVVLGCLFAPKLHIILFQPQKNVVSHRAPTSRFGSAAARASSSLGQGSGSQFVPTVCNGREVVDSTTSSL
As to the kind of experiment: mGluR2 cAMP assay. The assay is classed as cell-based. The conditions noted are these: clonally expressed human mGluR2 in HEK293; 1 μM forskolin, 1 μM LY-341495, 30 min; CISBIO cAMP kit; read-out: EC50 (nM), activity in mGluR2 cAMP assay. As to the method: On the day of the assay, media was removed, cells washed with PBS, cells harvested and pelleted by centrifugation. Cell pellets were resuspended in stimulation buffer without forskolin and counted. […] A standard curve was created using a top concentration of cAMP of 1 μM in the stimulation buffer, 1:3 dilutions over 14 points in the absence of cells. […] In house software converted the fluorescence value ratios to units of cAMP concentration, which is then used to calculate % inhibition for each test compound. MGluR2 cAMP Assay Materials and Methods. […] Buffer without forskolin was used as a negative control. Solutions of D2 and cryptate detection reagents from the CISBIO dynamic cAMP kit (62AM4PEJ) were diluted 1:40 in lysis buffer. Lysis buffer consisted of 50 mM Phosphate Buffer pH 7.0, 800 mM Potassium Fluoride, 0.2% BSA, and 1.0% Triton. Assay reaction was terminated by addition of detection reagents in lysis buffer. One hour later, plates were read on a PE Viewlux. Data was extracted, and concentration response curves generated by fitting the data to a standard 4 parameter logistic equation from which EC50 values were determined.
A general note: Changes in cAMP serve as a functional read-out for many G protein-coupled receptors.
A word on the EC50: it is the concentration giving half of the maximal effect. In the case of `FC(F)(F)c1c(OC[C@@H]2C[C@H]2c2ccc(Cl)cc2)ccn2c(CC3CC3)nnc12` [Example 33, 7-(((1R,2R)-2-(4-Chlorophenyl)cyclopropyl)methoxy)-3-(cyclopropylmethyl)-8-(trifluoromethyl)-[1,2,4]triazolo[4,3-a]pyridine], the EC50 came to 4 nM.

Take `FC(F)(F)c1c(OC[C@H]2C[C@@H]2c2ccc(Cl)cc2)ccn2c(CC3CC3)nnc12` [Example 34, 7-(((1S,2S)-2-(4-Chlorophenyl)cyclopropyl)methoxy)-3-(cyclopropylmethyl)-8-(trifluoromethyl)-[1,2,4]triazolo[4,3-a]pyridine]: the EC50 stood at 1.6 nM.

Turning to `N#C[C@]1(c2cccc(F)c2)C[C@H](Oc2ccn3c(CC4CC4)nnc3c2C(F)(F)F)C1` [Example 46, (1s,3s)-3-(3-(Cyclopropylmethyl)-8-(trifluoromethyl)-[1,2,4]triazolo[4,3-a]pyridin-7-yloxy)-1-(3-fluorophenyl)cyclobutanecarbonitrile], the EC50 worked out at 0.5 nM.

For the molecule `N#C[C@]1(c2ccc(F)cc2)C[C@H](Oc2ccn3c(CC4CC4)nnc3c2C(F)(F)F)C1` [Example 50, (1s,3s)-3-(3-(Cyclopropylmethyl)-8-(trifluoromethyl)-[1,2,4]triazolo[4,3-a]pyridin-7-yloxy)-1-(4-fluorophenyl)cyclobutanecarbonitrile], the EC50 was 2.7 nM.

Take `Fc1ccc(C2(COc3ccn4c(CC5CC5)nnc4c3C(F)(F)F)CC2)c(F)c1` [Example 51, 3-(Cyclopropylmethyl)-7-((1-(2,4-difluorophenyl)cyclopropyl)methoxy)-8-(trifluoromethyl)-[1,2,4]triazolo[4,3-a]pyridine]: the EC50 was determined as 43 nM.

As for `Fc1ccc([C@H]2C[C@@H]2COc2ccn3c(CC(F)(F)F)nnc3c2C(F)(F)F)cc1` [Example 52, 7-(((1S,2S)-2-(4-Fluorophenyl)cyclopropyl)methoxy)-3-(2,2,2-trifluoroethyl)-8-(trifluoromethyl)-[1,2,4]triazolo[4,3-a]pyridine], the EC50 was 1.6 nM.

With `COc1ccccc1[C@]1(C#N)C[C@@H](Oc2ccn3c(CC4CC4)nnc3c2C(F)(F)F)C1` [Example 53, (1s,3s)-3-(3-(Cyclopropylmethyl)-8-(trifluoromethyl)-[1,2,4]triazolo[4,3-a]pyridin-7-yloxy)-1-(2-methoxyphenyl)cyclobutanecarbonitrile], the EC50 came to 0.3 nM.

As to `N#C[C@]1(c2cc(F)cc(F)c2)C[C@H](Oc2ccn3c(CC4CC4)nnc3c2C(F)(F)F)C1` [Example 54, (1s,3s)-3-(3-(Cyclopropylmethyl)-8-(trifluoromethyl)-[1,2,4]triazolo[4,3-a]pyridin-7-yloxy)-1-(3,5-difluorophenyl)cyclobutanecarbonitrile], the half-maximal effective concentration (EC50) came to 2.2 nM.

For the molecule `Fc1cc(F)cc(C2(COc3ccn4c(CC5CC5)nnc4c3C(F)(F)F)CC2)c1` [Example 55, 3-(Cyclopropylmethyl)-7-((1-(3,5-difluorophenyl)cyclopropyl)methoxy)-8-(trifluoromethyl)-[1,2,4]triazolo[4,3-a]pyridine], the EC50 amounted to 20 nM.

Consider `FC(F)(F)c1c(OCC2(c3cc(Cl)cc(Cl)c3)CC2)ccn2c(CC3CC3)nnc12` [Example 56, 3-(Cyclopropylmethyl)-7-((1-(3,5-dichlorophenyl)cyclopropyl)methoxy)-8-(trifluoromethyl)-[1,2,4]triazolo[4,3-a]pyridine], for which the EC50 is 22 nM.

Take `FC(F)(F)c1c(O[C@H]2C[C@H](c3ccccc3)C2)ccn2c(CC3CC3)nnc12` [Example 57, 3-(Cyclopropylmethyl)-7-((1r,3r)-3-phenylcyclobutoxy)-8-(trifluoromethyl)-[1,2,4]triazolo[4,3-a]pyridine]: the EC50 was 0.5 nM.

As for `Clc1ccc(COc2ccn3c(CC4CC4)nnc3c2Cl)cc1` [Example 58, 8-Chloro-7-(4-chlorobenzyloxy)-3-(cyclopropylmethyl)-[1,2,4]triazolo[4,3-a]pyridine, TFA salt], the EC50 was found to be 60 nM.

For the molecule `CC(Oc1ccn2c(CC3CC3)nnc2c1Cl)c1ccc(F)cc1` (stereo not drawn) [Example 59, 8-Chloro-3-(cyclopropylmethyl)-7-(1-(4-fluorophenyl)ethoxy)-[1,2,4]triazolo[4,3-a]pyridine], the EC50 was 530 nM.

Regarding `Clc1cccc(COc2ccn3c(CC4CC4)nnc3c2Cl)c1` [Example 60, 8-Chloro-7-(3-chlorobenzyloxy)-3-(cyclopropylmethyl)-[1,2,4]triazolo[4,3-a]pyridine], the EC50 came out at 18 nM.

For `COc1cccc(COc2ccn3c(CC4CC4)nnc3c2Cl)c1` [Example 61, 8-Chloro-3-(cyclopropylmethyl)-7-(3-methoxybenzyloxy)-[1,2,4]triazolo[4,3-a]pyridine], the EC50 turned out to be 40 nM.

With `Clc1c(OCCCc2cccnc2)ccn2c(CC3CC3)nnc12` [Example 62, 8-Chloro-3-(cyclopropylmethyl)-7-(3-(pyridin-3-yl)propoxy)-[1,2,4]triazolo[4,3-a]pyridine], the EC50 stood at 270 nM.

With `Clc1c(OCCOc2ccccc2)ccn2c(CC3CC3)nnc12` [Example 63, 8-Chloro-3-(cyclopropylmethyl)-7-(2-phenoxyethoxy)-[1,2,4]triazolo[4,3-a]pyridine], the EC50 came to 100 nM.

Turning to `Clc1c(OCCc2ccccc2)ccn2c(CC3CC3)nnc12` [Example 64, 8-Chloro-3-(cyclopropylmethyl)-7-phenethoxy-[1,2,4]triazolo[4,3-a]pyridine], the EC50 was found to be 32 nM.

As for `COc1cc(COc2ccn3c(CC4CC4)nnc3c2Cl)ccc1F` [Example 65, 8-Chloro-3-(cyclopropylmethyl)-7-(4-fluoro-3-methoxybenzyloxy)-[1,2,4]triazolo[4,3-a]pyridine], the EC50 amounted to 110 nM.

For the molecule `Clc1ccccc1COc1ccn2c(CC3CC3)nnc2c1Cl` [Example 66, 8-Chloro-7-(2-chlorobenzyloxy)-3-(cyclopropylmethyl)-[1,2,4]triazolo[4,3-a]pyridine], the EC50 was found to be 11 nM.

Turning to `Cc1cccc(COc2ccn3c(CC4CC4)nnc3c2Cl)c1` [Example 67, 8-Chloro-3-(cyclopropylmethyl)-7-(3-methylbenzyloxy)-[1,2,4]triazolo[4,3-a]pyridine], the concentration for a half-maximal effect (EC50) is 55 nM.

Consider `Fc1ccccc1COc1ccn2c(CC3CC3)nnc2c1Cl` [Example 68, 8-Chloro-3-(cyclopropylmethyl)-7-(2-fluorobenzyloxy)-[1,2,4]triazolo[4,3-a]pyridine], for which the EC50 was 68 nM.

For `Clc1ccc(COc2ccn3c(CC4CC4)nnc3c2Cl)cc1Cl` [Example 69, 8-Chloro-3-(cyclopropylmethyl)-7-(3,4-dichlorobenzyloxy)-[1,2,4]triazolo[4,3-a]pyridine], the EC50 is 32 nM.

Consider `COc1ccc(COc2ccn3c(CC4CC4)nnc3c2Cl)cc1` [Example 70, 8-Chloro-3-(cyclopropylmethyl)-7-(4-methoxybenzyloxy)-[1,2,4]triazolo[4,3-a]pyridine], for which the EC50 came out at 140 nM.

Consider `Fc1cccc(F)c1COc1ccn2c(CC3CC3)nnc2c1Cl` [Example 71, 8-Chloro-3-(cyclopropylmethyl)-7-(2,6-difluorobenzyloxy)-[1,2,4]triazolo[4,3-a]pyridine], for which the EC50 was 11 nM.

With `COc1cccc(F)c1COc1ccn2c(CC3CC3)nnc2c1Cl` [Example 72, 8-Chloro-3-(cyclopropylmethyl)-7-(2-fluoro-6-methoxybenzyloxy)-[1,2,4]triazolo[4,3-a]pyridine], the EC50 worked out at 42 nM.

Consider `FC(F)(F)Oc1ccc(Cl)cc1COc1ccn2c(CC3CC3)nnc2c1Cl` [Example 73, 8-Chloro-7-(5-chloro-2-(trifluoromethoxy)benzyloxy)-3-(cyclopropylmethyl)-[1,2,4]triazolo[4,3-a]pyridine], for which the concentration giving a half-maximal response (EC50) was 22 nM.

On to `COc1ccc(F)cc1COc1ccn2c(CC3CC3)nnc2c1Cl` [Example 74, 8-Chloro-3-(cyclopropylmethyl)-7-(5-fluoro-2-methoxybenzyloxy)-[1,2,4]triazolo[4,3-a]pyridine], for which the concentration giving a half-maximal response (EC50) is 21 nM.

As to `Clc1c(OCc2cccc(OC3CC3)c2)ccn2c(CC3CC3)nnc12` [Example 75, 8-Chloro-7-(3-cyclopropoxybenzyloxy)-3-(cyclopropylmethyl)-[1,2,4]triazolo[4,3-a]pyridine], the EC50 is 29 nM.

As to `Fc1cc(F)cc(COc2ccn3c(CC4CC4)nnc3c2Cl)c1` [Example 76, 8-Chloro-3-(cyclopropylmethyl)-7-(3,5-difluorobenzyloxy)-[1,2,4]triazolo[4,3-a]pyridine], the EC50 came to 4.1 nM.

As to `Fc1cccc(Cl)c1CCOc1ccn2c(CC3CC3)nnc2c1C(F)(F)F` [Example 80, 7-(2-Chloro-6-fluorophenethoxy)-3-(cyclopropylmethyl)-8-(trifluoromethyl)-[1,2,4]triazolo[4,3-a]pyridine], the half-maximal effective concentration (EC50) came out at 0.4 nM.

On to `Fc1cccc(F)c1CCOc1ccn2c(CC3CC3)nnc2c1C(F)(F)F` [Example 81, 3-(Cyclopropylmethyl)-7-(2,6-difluorophenethoxy)-8-(trifluoromethyl)-[1,2,4]triazolo[4,3-a]pyridine], for which the EC50 was found to be 1.5 nM.

As to `Clc1cc(COc2ccn3c(CC4CC4)nnc3c2Cl)nc(Cl)n1` [Example 82, 8-Chloro-3-(cyclopropylmethyl)-7-((2,6-dichloropyrimidin-4-yl)methoxy)-[1,2,4]triazolo[4,3-a]pyridine], the EC50 worked out at 20 nM.
